Results from the kinase profiling compilation of Christmann-Franck et al. (2016).

Tests used:
Assay in all cases: radiometric filter-binding kinase assay
[1] = molecular target: BRSK2 (human) (UniProt Q8IWQ3)
[2] = molecular target: CAMKK2 (human) (UniProt Q96RR4)
[3] = molecular target: CHEK1 (human) (UniProt O14757)
[4] = molecular target: CSNK2A1 (human) (UniProt P68400)
[5] = molecular target: CaMK1 (human) (UniProt Q14012)
[6] = molecular target: DYRK1A (human) (UniProt Q13627)
[7] = molecular target: DYRK3 (human) (UniProt O43781)
[8] = molecular target: FGFR1 (human) (UniProt P11362)
[9] = molecular target: HIPK2 (human) (UniProt Q9H2X6)
[10] = molecular target: IGF1R (human) (UniProt P08069); settings: compound 1.0 µM
[11] = test system: LCK (mouse); settings: accession and sequence are those of the human protein
[12] = molecular target: MAPK11 (human) (UniProt Q15759)
[13] = molecular target: MAPK13 (human) (UniProt O15264)
[14] = molecular target: MAPK8 (human) (UniProt P45983)
[15] = molecular target: MAPKAPK5 (human) (UniProt Q8IW41)
[16] = molecular target: MARK3 (human) (UniProt P27448)
[17] = molecular target: MKNK1 (human) (UniProt Q9BUB5)
[18] = molecular target: PHKG1 (human) (UniProt Q16816)
[19] = molecular target: PIM3 (human) (UniProt Q86V86)
[20] = test system: ROCK2 (rat); settings: accession and sequence are those of the human protein
[21] = test system: SGK1 (human), O00141 [S422D]
[22] = molecular target: SRPK1 (human) (UniProt Q96SB4)
[23] = molecular target: STK3 (human) (UniProt Q13188)
[24] = molecular target: TBK1 (human) (UniProt Q9UHD2)
[25] = molecular target: YES1 (human) (UniProt P07947)
Chain of YES1 (human) (P07947 whole entry, looked up): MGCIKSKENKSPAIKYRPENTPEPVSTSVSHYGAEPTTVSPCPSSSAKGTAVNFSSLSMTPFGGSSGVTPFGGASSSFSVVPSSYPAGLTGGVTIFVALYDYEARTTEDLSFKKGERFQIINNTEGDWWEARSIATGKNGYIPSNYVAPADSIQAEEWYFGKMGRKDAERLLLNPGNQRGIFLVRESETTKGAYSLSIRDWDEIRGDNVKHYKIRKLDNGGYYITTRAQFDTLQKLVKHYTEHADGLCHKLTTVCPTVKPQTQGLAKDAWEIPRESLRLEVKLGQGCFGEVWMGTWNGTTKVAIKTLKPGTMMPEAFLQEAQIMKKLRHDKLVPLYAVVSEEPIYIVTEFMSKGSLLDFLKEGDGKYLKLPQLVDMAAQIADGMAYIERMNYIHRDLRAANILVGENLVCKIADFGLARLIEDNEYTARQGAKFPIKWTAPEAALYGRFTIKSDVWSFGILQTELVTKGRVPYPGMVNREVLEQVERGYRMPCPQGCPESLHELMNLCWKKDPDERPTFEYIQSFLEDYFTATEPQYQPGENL

Chain of TBK1 (human) (Q9UHD2 whole entry, looked up): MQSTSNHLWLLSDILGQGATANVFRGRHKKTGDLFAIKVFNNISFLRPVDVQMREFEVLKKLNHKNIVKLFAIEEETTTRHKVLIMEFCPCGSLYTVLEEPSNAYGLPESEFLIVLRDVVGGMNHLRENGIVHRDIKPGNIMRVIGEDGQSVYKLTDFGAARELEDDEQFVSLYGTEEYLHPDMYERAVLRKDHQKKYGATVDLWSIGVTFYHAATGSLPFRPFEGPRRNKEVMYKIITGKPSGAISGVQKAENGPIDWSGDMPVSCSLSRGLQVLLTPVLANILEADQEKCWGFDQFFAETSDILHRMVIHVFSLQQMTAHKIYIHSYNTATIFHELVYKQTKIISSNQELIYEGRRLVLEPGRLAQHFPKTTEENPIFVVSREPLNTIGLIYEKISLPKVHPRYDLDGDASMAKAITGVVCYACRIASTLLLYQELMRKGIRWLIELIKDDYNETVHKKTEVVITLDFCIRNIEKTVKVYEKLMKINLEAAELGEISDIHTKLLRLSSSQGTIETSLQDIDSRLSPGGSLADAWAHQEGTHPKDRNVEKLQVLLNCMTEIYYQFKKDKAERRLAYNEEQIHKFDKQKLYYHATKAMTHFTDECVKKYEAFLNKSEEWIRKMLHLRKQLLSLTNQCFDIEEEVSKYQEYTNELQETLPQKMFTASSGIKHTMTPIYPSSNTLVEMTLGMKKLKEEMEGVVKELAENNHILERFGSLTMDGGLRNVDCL
Chain of MAPK11 (human) (Q15759 whole entry, looked up): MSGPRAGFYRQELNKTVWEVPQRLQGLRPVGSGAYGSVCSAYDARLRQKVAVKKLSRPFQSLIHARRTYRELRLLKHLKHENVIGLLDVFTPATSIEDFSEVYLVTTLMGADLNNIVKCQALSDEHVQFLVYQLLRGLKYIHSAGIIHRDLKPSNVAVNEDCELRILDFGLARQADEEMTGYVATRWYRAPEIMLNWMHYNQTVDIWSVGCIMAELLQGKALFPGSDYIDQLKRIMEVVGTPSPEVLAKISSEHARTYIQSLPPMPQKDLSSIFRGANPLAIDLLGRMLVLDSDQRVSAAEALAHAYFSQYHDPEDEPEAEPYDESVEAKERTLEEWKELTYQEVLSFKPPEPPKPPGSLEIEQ
Chain of CAMKK2 (human) (Q96RR4 whole entry, looked up): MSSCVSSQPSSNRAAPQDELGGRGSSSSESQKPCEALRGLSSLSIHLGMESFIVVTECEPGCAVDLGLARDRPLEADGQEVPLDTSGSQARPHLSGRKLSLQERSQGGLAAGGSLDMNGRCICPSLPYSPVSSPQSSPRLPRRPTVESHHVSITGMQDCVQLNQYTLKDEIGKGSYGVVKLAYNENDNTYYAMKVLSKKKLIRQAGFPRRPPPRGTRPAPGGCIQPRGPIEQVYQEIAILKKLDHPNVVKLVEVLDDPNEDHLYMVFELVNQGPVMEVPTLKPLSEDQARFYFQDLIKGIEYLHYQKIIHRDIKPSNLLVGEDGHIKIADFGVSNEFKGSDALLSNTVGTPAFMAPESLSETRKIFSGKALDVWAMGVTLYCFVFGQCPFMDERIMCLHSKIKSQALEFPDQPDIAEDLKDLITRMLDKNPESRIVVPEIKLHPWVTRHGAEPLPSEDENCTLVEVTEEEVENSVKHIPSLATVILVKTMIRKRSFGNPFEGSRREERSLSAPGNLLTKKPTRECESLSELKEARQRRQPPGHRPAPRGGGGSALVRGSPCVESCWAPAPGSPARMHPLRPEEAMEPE
Chain of CaMK1 (human) (Q14012 whole entry, looked up): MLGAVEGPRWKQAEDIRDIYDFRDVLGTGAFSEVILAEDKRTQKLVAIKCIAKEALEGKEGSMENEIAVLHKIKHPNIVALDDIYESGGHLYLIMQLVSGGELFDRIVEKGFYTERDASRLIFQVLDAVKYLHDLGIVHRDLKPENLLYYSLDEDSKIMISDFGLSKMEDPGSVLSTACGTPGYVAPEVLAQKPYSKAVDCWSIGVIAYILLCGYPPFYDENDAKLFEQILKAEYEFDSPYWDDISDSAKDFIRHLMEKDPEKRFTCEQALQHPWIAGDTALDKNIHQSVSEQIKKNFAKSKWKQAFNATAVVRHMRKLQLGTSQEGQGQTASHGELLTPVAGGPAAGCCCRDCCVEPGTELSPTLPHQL
Chain of MKNK1 (human) (Q9BUB5 whole entry, looked up): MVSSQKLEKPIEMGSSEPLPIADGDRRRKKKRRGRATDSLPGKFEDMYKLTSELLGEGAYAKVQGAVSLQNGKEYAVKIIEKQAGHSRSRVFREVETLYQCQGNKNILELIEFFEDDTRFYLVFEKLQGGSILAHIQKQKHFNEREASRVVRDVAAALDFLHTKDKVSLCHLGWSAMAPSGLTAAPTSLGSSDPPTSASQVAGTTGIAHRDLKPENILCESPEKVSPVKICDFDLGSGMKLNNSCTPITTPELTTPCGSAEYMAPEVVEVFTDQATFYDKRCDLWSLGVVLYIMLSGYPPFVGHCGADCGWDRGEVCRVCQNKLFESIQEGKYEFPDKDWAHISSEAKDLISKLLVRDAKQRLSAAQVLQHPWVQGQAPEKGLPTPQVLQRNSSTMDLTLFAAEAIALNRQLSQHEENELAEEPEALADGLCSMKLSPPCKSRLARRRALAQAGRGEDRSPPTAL
Chain of MARK3 (human) (P27448 whole entry, looked up): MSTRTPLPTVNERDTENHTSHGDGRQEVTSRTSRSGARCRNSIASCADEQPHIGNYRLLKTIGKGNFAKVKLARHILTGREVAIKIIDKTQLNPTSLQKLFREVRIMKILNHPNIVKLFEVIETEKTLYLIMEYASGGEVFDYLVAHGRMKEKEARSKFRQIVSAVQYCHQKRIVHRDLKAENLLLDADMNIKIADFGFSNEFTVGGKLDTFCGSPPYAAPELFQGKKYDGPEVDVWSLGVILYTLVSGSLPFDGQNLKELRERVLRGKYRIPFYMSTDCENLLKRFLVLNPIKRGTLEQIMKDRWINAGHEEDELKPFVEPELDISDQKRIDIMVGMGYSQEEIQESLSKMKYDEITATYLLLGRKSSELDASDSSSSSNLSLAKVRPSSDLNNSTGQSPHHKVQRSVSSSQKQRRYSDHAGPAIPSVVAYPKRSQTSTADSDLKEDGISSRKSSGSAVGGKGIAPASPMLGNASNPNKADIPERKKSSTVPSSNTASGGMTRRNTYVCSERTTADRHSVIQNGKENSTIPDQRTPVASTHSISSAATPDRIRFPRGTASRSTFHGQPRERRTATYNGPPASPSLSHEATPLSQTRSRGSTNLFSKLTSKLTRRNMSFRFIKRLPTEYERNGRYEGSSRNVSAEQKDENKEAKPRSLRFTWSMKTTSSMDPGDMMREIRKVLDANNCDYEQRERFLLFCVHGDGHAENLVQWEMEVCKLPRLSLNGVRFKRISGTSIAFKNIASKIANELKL
Chain of BRSK2 (human) (Q8IWQ3 whole entry, looked up): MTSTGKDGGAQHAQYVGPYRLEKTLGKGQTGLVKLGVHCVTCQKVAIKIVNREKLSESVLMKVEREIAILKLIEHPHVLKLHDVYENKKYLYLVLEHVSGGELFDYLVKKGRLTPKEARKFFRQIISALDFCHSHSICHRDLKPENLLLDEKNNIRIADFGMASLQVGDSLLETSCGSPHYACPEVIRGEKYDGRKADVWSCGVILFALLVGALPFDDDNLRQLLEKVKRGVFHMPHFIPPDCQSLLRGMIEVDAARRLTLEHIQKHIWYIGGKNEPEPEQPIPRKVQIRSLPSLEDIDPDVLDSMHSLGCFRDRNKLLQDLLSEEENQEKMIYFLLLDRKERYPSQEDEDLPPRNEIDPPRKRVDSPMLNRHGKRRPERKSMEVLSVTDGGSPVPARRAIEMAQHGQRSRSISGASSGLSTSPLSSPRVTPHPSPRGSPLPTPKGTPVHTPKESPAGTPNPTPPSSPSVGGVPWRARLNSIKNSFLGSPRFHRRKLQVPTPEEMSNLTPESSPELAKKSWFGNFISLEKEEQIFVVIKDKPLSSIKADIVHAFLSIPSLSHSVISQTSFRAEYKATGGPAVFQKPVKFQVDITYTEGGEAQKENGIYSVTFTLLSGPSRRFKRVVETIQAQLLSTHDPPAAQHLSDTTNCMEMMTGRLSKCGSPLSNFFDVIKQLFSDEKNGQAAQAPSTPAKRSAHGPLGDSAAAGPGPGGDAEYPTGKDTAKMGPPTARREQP

O=C1Nc2nc(-c3c(O)cccc3OCC3CC3)cc(C3CCCNC3)c2CO1 (centres undefined) gave a residual activity ([1]; compound 1.0 µM) of 89%, a residual activity ([1]; compound 10.0 µM) of 45% and a residual activity ([2]; compound 1.0 µM) of 94%. It also gave a residual activity ([2]; compound 10.0 µM) of 78%, a residual activity ([3]; compound 1.0 µM) of 102% and a residual activity ([3]; compound 10.0 µM) of 88%. For the same molecule, the residual activity ([4]; compound 1.0 µM) was 95%, the residual activity ([4]; compound 10.0 µM) was 70% and the residual activity ([5]; compound 1.0 µM) was 54%. The residual activity ([5]; compound 10.0 µM) was 13%, the residual activity ([6]; compound 1.0 µM) was 99% and the residual activity ([6]; compound 10.0 µM) was 82%. The residual activity ([7]; compound 1.0 µM) was 71%, the residual activity ([7]; compound 10.0 µM) was 24% and the residual activity ([8]; compound 1.0 µM) was 96%. It also gave a residual activity ([8]; compound 10.0 µM) of 79%, a residual activity ([9]; compound 1.0 µM) of 84% and a residual activity ([9]; compound 10.0 µM) of 34%. The residual activity [10] was 80%, the residual activity ([11]; compound 1.0 µM) was 88% and the residual activity ([11]; compound 10.0 µM) was 74%. It also gave a residual activity ([12]; compound 1.0 µM) of 91%, a residual activity ([12]; compound 10.0 µM) of 74% and a residual activity ([13]; compound 1.0 µM) of 88%. The residual activity ([13]; compound 10.0 µM) was 73%, the residual activity ([14]; compound 1.0 µM) was 76% and the residual activity ([14]; compound 10.0 µM) was 61%. For the same molecule, the residual activity ([15]; compound 1.0 µM) was 74%, the residual activity ([15]; compound 10.0 µM) was 58% and the residual activity ([16]; compound 1.0 µM) was 100%. It also gave a residual activity ([16]; compound 10.0 µM) of 94%, a residual activity ([17]; compound 1.0 µM) of 97% and a residual activity ([17]; compound 10.0 µM) of 74%. For the same molecule, the residual activity ([18]; compound 1.0 µM) was 70%, the residual activity ([18]; compound 10.0 µM) was 21% and the residual activity ([19]; compound 1.0 µM) was 44%. It also gave a residual activity ([19]; compound 10.0 µM) of 7%, a residual activity ([20]; compound 1.0 µM) of 73% and a residual activity ([20]; compound 10.0 µM) of 39%. The residual activity ([21]; compound 1.0 µM) was 55%, the residual activity ([21]; compound 10.0 µM) was 13% and the residual activity ([22]; compound 1.0 µM) was 98%. The residual activity ([22]; compound 10.0 µM) was 65%, the residual activity ([23]; compound 1.0 µM) was 84% and the residual activity ([23]; compound 10.0 µM) was 67%. It also gave a residual activity ([24]; compound 1.0 µM) of 91%, a residual activity ([24]; compound 10.0 µM) of 84% and a residual activity ([25]; compound 1.0 µM) of 94%. For the same molecule, the residual activity ([25]; compound 10.0 µM) was 49%.
